{
  "source": "ChEMBL document CHEMBL4303773",
  "about": "(Nature, 2020)",
  "key": {"[1]": {"biological_target": "T1, Muscarinic acetylcholine receptor M2 (Homo sapiens, UniProt P08172)", "T1 sequence (P08172 whole entry)": "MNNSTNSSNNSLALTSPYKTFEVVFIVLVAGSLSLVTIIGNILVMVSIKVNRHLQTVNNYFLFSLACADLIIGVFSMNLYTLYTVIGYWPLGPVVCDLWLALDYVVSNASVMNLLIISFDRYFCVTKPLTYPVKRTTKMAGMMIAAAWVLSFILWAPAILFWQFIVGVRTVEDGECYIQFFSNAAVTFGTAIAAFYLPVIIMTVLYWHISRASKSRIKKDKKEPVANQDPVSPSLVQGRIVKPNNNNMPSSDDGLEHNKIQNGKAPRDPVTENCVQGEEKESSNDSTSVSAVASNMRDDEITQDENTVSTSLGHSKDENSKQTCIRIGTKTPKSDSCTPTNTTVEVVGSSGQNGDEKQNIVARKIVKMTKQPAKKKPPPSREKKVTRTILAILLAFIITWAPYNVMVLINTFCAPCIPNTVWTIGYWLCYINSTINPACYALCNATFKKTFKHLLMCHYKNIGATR", "test": "Activity of compound against Muscarinic acetylcholine receptor M2 (CHRM2) by displacement of 3H-QNB"}, "[2]": {"biological_target": "Sigma intracellular receptor 2 (Homo sapiens, UniProt Q5BJF2)", "sequence (Q5BJF2 whole entry)": "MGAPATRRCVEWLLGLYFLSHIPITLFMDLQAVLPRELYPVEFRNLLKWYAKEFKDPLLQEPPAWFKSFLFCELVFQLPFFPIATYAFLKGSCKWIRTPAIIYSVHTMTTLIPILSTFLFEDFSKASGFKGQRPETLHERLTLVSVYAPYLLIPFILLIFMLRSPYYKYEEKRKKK", "test": "Displacement of [3H]-DTG from the Sigma2 receptor"}, "Vero C1008": {"test_system": "Vero C1008", "test": "Cytotoxicity of compound against Vero E6 cells by MTT assay.", "settings": "chlorocebus sabaeus, vero c1008"}, "[3]": {"biological_target": "T2, Alpha-2C adrenergic receptor (Homo sapiens, UniProt P18825)", "T2 sequence (P18825 whole entry)": "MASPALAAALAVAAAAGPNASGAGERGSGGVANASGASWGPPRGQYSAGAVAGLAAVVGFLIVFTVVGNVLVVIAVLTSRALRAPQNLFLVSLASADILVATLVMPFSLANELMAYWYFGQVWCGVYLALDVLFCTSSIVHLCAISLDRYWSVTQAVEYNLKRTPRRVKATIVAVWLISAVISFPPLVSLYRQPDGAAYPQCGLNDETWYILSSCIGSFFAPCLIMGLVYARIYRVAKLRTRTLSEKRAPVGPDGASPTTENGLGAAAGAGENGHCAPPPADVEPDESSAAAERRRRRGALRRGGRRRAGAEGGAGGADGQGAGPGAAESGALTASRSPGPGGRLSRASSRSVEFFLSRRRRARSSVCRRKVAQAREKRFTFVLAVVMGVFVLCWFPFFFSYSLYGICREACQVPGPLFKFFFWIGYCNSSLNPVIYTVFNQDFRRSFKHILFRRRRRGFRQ", "description": "Activity of compound against Alpha 2C (ADRA2C) adrenergic receptor by displacement of [3H]-rauwolscine"}, "[4]": {"biological_target": "T3, Muscarinic acetylcholine receptor M4 (Homo sapiens, UniProt P08173)", "T3 sequence (P08173 whole entry)": "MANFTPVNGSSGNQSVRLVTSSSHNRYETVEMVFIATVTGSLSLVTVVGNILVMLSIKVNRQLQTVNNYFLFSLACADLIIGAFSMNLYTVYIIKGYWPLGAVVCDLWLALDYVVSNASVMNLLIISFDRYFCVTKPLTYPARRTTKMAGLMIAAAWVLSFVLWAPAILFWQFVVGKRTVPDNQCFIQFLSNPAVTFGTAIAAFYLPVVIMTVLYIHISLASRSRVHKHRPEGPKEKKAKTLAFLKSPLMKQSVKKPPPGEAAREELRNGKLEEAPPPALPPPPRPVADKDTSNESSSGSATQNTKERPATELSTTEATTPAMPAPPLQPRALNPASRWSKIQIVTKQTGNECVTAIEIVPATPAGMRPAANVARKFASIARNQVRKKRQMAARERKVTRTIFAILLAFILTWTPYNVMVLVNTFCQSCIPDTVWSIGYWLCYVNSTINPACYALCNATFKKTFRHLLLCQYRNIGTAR", "test": "Activity of compound against Muscarinic acetylcholine receptor M4 (CHRM4) by displacement of 3H-QNB"}, "[5]": {"biological_target": "Sigma non-opioid intracellular receptor 1 (Homo sapiens, UniProt Q99720)", "sequence (Q99720 whole entry)": "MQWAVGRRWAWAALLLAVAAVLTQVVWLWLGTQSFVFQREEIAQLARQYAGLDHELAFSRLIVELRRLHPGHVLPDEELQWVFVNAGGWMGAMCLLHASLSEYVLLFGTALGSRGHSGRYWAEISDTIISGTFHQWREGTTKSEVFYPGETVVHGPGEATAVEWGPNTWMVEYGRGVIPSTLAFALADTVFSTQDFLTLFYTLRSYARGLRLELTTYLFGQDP", "description": "Displacement of [3H]-pentazocin from the Sigma1 receptor"}, "[6]": {"biological_target": "Voltage-gated inwardly rectifying potassium channel KCNH2 (Homo sapiens, UniProt Q12809)", "sequence (Q12809 whole entry)": "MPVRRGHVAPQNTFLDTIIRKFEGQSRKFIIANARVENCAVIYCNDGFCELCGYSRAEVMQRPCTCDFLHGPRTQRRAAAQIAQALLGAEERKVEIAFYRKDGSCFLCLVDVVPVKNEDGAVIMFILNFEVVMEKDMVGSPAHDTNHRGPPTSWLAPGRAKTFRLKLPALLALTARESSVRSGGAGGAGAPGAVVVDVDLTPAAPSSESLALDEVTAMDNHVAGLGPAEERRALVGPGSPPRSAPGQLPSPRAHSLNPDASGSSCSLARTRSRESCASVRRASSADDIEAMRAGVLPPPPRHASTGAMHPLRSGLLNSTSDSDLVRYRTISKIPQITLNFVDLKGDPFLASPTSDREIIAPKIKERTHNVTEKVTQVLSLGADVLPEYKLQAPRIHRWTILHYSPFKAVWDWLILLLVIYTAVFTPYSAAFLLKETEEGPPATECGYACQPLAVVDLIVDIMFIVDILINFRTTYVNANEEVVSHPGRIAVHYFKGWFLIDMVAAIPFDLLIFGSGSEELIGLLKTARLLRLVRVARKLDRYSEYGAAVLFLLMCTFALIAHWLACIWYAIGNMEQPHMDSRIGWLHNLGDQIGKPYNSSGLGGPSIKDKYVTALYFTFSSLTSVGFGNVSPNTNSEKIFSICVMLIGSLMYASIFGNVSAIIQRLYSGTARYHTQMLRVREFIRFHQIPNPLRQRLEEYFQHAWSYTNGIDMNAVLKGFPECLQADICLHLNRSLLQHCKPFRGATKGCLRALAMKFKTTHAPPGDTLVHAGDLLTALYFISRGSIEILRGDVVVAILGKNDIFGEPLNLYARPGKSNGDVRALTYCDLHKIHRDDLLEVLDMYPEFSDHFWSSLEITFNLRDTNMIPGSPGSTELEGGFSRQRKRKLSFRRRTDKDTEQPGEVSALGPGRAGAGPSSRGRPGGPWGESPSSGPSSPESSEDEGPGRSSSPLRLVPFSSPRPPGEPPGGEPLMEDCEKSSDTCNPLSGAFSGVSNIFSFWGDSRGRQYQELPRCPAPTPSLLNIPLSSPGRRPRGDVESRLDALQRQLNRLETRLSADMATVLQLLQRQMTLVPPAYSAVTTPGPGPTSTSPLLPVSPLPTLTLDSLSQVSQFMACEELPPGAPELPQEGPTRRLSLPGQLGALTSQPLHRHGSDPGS", "description": "hERG binding assays: Displacement of [3H]-Dofetilide (5 nM final) from hERG membranes obtained from HEK293 cells"}, "[7]": {"biological_target": "T4, Muscarinic acetylcholine receptor M5 (Homo sapiens, UniProt P08912)", "T4 sequence (P08912 whole entry)": "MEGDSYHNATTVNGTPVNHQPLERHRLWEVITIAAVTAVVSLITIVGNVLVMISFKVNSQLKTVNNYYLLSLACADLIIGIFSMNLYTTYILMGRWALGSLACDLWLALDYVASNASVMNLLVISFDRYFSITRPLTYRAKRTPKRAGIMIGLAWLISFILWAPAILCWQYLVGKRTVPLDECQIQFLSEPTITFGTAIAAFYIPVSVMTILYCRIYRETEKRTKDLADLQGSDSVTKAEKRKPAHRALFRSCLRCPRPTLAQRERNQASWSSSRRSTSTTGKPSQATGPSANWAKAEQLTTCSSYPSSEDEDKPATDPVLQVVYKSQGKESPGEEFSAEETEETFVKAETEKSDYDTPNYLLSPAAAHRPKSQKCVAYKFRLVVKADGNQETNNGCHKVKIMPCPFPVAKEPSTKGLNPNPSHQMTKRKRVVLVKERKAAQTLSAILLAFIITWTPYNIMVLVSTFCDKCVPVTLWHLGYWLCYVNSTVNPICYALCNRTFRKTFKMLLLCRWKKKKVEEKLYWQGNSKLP", "test": "Activity of compound against Muscarinic acetylcholine receptor M5 (CHRM5) by displacement of 3H-QNB"}, "[8]": {"biological_target": "T5, Alpha-2A adrenergic receptor (Homo sapiens, UniProt P08913)", "T5 sequence (P08913 whole entry)": "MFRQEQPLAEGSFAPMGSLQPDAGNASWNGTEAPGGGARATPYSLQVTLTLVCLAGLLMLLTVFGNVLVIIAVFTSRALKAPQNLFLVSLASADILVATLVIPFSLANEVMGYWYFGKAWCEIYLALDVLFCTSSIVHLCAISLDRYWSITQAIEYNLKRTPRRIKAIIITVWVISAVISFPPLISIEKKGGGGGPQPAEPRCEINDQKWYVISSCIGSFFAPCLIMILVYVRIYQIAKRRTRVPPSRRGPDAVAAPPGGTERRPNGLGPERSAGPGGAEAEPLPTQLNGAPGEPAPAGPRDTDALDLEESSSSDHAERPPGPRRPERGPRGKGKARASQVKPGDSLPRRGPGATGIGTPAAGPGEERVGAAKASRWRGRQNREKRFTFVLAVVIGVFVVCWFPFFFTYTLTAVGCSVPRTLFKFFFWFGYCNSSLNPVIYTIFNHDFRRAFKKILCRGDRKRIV", "test": "Activity of compound against Alpha-2A (ADRA2A) adrenergic receptor by displacement of [3H]-rauwolscine"}},
  "data": [
    {"compound": "CCCN1CCC=C(c2cc(-c3ccc(C)cc3)no2)C1", "values": [
      {"measurement": "Ki", "setting": "[1]", "result": 24, "unit": "µM"},
      {"measurement": "Ki", "setting": "[2]", "result": 0.794, "unit": "µM"},
      {"measurement": "pCC50", "setting": "Vero C1008", "result": "~ 2.928"},
      {"measurement": "Ki", "setting": "[3]", "result": 10, "unit": "µM"},
      {"measurement": "Ki", "setting": "[4]", "result": 24.5, "unit": "µM"},
      {"measurement": "Ki", "setting": "[5]", "result": 0.002, "unit": "µM"},
      {"measurement": "Ki", "setting": "[6]", "result": 10, "unit": "µM"},
      {"measurement": "Ki", "setting": "[7]", "result": 28.2, "unit": "µM"},
      {"measurement": "Ki", "setting": "[8]", "result": 8.32, "unit": "µM"}
    ]}
  ]
}
